Data published in patent publication US20100316609A1, “Conditionally Replicating Viruses for Cancer Therapy” (priority 2006, published 2010).

What was measured:
N2A neuroblastoma cells = test: VPA effect on Ad.CMV-LacZ gene expression in vitro; type: cell-based
Experimental: FIG. 5A is a graph showing N2A cells transduced by Ad.CMV-LacZ, and then exposed to varying concentrations of VPA (as indicated). Twenty-four hours later, LacZ expression was analyzed. FIG. 5B is a graph showing N2A cells cultured on poly-D-lysine coated 12-well plates in NB/B27 medium, and transduced with Ad.CMV-LacZ at a multiplicity of infection (MOI) of 10. Two hours thereafter, the culture medium was replaced with medium containing 1 mM VPA or vehicle (control). The medium was changed every 24-hours thereafter, and cell aliquots were harvested at the indicated time points (1, 3, 5, 7, 10 and 12 days post infection). LacZ expression was then measured in the lysates.
VPA enhanced virally-vectored gene expression, using a panel of gene delivery platforms that include recombinant, replication-defective type 5 adenovirus vectors. […] Similar effects were also observed in several primary cells transduced by Ad-CMV-LacZ (Fan, et al., J. Virol. Methods 125:23-33 (2005)).

BALB/c mice = test: VPA effect on Ad-CMV-Luc gene expression in vivo; settings: Ad-CMV-Luc intramuscular, VPA six days, biophotonic imaging
Experimental: In FIG. 6A luciferase-encoding adenovirus vector (Ad.CMV-Luc) was inoculated into the thigh muscle of BALB/c mice. These animals (3/group) were then treated with either VPA or with vehicle alone for six days, by twice-daily i.p. injection. Representative images obtained with the IVIS CCD camera at day 2 and 6 post Ad-infection are presented. In FIG. 6B the levels of adenovirally vectored luciferase gene expression in the mice shown in panel A were quantitated at day 2 and 6 post infection using the Living Image® 2.20.1 software (Xenogen, Alameda, Calif.).
[…] of a luciferase-expressing adenovirus vector (Ad-CMV-Luc) was inoculated into BALB/c mice, via an intramuscular route. These animals were then treated with either VPA or with vehicle alone for six days, and the expression of luciferase was analyzed over time using biophotonic imaging.

human lung fibroblasts = test: HIV-1 RT based cellular dNTP assay; type: cell-based
Excerpt: A ^32P labeled 18-mer annealed to a 19-mer template was extended by HIV-1 RT with known amounts of TTP. Percent of the primer extension with each dNTP amount was plotted (B).
A highly sensitive dNTP assay capable of monitoring dNTP levels in primary cells has been described (Diamond et al., J. Biol. Chem. 279:51545-53 2004). It has been difficult to determine dNTP levels in terminally differentiated primary cells due to the lack of highly sensitive dNTP assays. […] This assay used a ^32P-labeled 18-mer primer annealed to a 19-mer template, allowing incorporation of one of four dNTPs, generating 19-mer products (FIG. 2A). Indeed, this assay is ˜250 times more sensitive than the HPLC based assay. With this assay, dNTP concentrations in primary human macrophages, CD4+ T cells, and human fibroblasts were determined (Table 3). This assay also allowed monitoring of fluctuations of cellular dNTP contents, in different cell types, or under different phases of the cell cycle or culture conditions. Primary cells such as human primary lung fibroblast cells (HFL culture with 10% serum) have 5-10 lower dNTP content than tumor cells such as PANC1 cells (Table 4). Treatment with deoxynucleoside (dNs) enhanced cellular dNTP content in human lung fibroblasts (cultured with 10% serum) by 80 fold (Table 4).

Compound: CCCC(CCC)C(=O)O [VPA, Valproic acid]
- reporter gene (LacZ) expression (N2A neuroblastoma cells; Ad-CMV-LacZ transduced N2A cells, varying VPA, FIG. 5A): dose-dependent increase
- duration of increased expression of the delivered gene post VPA-treatment (N2A neuroblastoma cells; VPA 1 mM, FIG. 5B): more than 12 days
- expression of luciferase compared to untreated mice (BALB/c mice): increased expression of luciferase

Compound: deoxynucleosides [dNs]
- enhancement of cellular dNTP content (human lung fibroblasts; human lung fibroblasts cultured with 10% serum): 80 fold
- [dNTP] (human lung fibroblasts; lung fibroblasts (+dN)): 20~90 μM
- [dNTP] relative to untreated lung fibroblasts (1x) (human lung fibroblasts; lung fibroblasts (+dN)): ~80 x
